Experimental data published in US20250092065A1, “2-(INDAZOL-5-YL)-6-(PIPERIDIN-4-YL)-1,7-NAPHTHYRIDINE DERIVATIVES AND RELATED COMPOUNDS AS MODULATORS FOR SPLICING NUCLEIC ACIDS AND FOR THE TREATMENT OF PROLIFERATIVE DISEASES” (REMIX THERAPEUTICS INC., priority 2022, published 2025).
Like-named read-outs stand apart in the source and are kept apart here.

What was measured:
[1] = test system: Target C; assay: RT-qPCR canonical junction panel assay, Target C mRNA; assay type: cell-based; conditions: Table 4, read-out: Target C IC50 (decrease in CJ mRNA levels)
Summary of the method: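 A673 or K562 cells treated with compound; CJ mRNA quantified by junction-spanning RT-qPCR probe after cDNA synthesis, normalised to GAPDH, GUSB or PPIA and DMSO (2^−ΔΔCt), scaled to set ΔCt assay window; IC50 from 4-parameter fit of CJ decrease.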

[2] = test system: SMN2 mRNA; assay: RT-qPCR splicing assay, SMN2 mRNA; assay type: cell-based, human; conditions: canonical junction qPCR panel, Table 4, read-out: SMN2 IC50 (decrease in CJ mRNA levels)
Summary of the method: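 A673 or K562 cells treated 24 h at 37 °C with an 11-point 3-fold dilution series (top 10 uM, DMSO ≤0.25%). Lysates went directly to one-step RT-qPCR quantifying canonical (CJ) and alternative-exon (AJ) junctions, normalized to GAPDH, GUSB or PPIA. Values from ΔΔCt versus DMSO, RQ = 2^(−ΔΔCt), expressed as percentage response.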

Row | IC50 [1] [nM] | IC50 ([2]; Homo sapiens) [nM] | IC50 [2] [nM] | Compound
1 | < 100 | < 100 | – | Cn1cc2cc(-c3ccc4nc(N5CCC(NC6CC6)C5)ccc4n3)c(O)c(F)c2n1 (racemic) [Compound 287, 5-{6-[3-(cyclopropylamino)pyrrolidin-1-yl]-1,5-naphthyridin-2-yl}-7-fluoro-2-methylindazol-6-ol; trifluoroacetic acid]
2 | < 100 | < 100 | – | CC(C)N[C@@H]1CCN(c2ccc3nc(-c4cc5cn(C)nc5c(F)c4O)ccc3n2)C1 (single isomer, unassigned) [Compound 285]
3 | < 100 | < 100 | – | CC(C)N[C@H]1CCN(c2ccc3nc(-c4cc5cn(C)nc5c(F)c4O)ccc3n2)C1 (single isomer, unassigned) [Compound 286]
4 | < 100 | < 100 | – | Cc1c(O)c(-c2ccc3nc(N4CC[C@@H](NC5CCC5)C4)ccc3n2)cc2cn(C)nc12 (single isomer, unassigned) [Compound 289]
5 | < 100 | < 100 | – | Cc1c(O)c(-c2ccc3nc(N4CC[C@H](NC5CCC5)C4)ccc3n2)cc2cn(C)nc12 (single isomer, unassigned) [Compound 290]
6 | 100 to 1000 | < 100 | – | Cc1nc2cc(O)c(-c3ccc4nc(N5CCC(NCC6CC6)C5)ccc4n3)cc2o1 (single isomer, unassigned) [Compound 291, 6-(6-{3-[(cyclopropylmethyl)amino]pyrrolidin-1-yl}-1,5-naphthyridin-2-yl)-2-methyl-1,3-benzoxazol-5-ol]
7 | 100 to 1000 | – | < 100 | Cc1nc2cc(O)c(-c3ccc4nc(N5CCC(NCC6CC6)C5)ccc4n3)cc2o1 (single isomer, unassigned) [Compound 292, 6-(6-{3-[(cyclopropylmethyl)amino]pyrrolidin-1-yl}-1,5-naphthyridin-2-yl)-2-methyl-1,3-benzoxazol-5-ol]
8 | 100 to 1000 | < 100 | – | Cc1nc2c(C)c(O)c(-c3ccc4nc(N5CC[C@@H](NCC6CC6)C5)ccc4n3)cc2o1 (single isomer, unassigned) [Compound 295]
9 | < 100 | < 100 | – | Cc1nc2c(C)c(O)c(-c3ccc4nc(N5CC[C@H](NCC6CC6)C5)ccc4n3)cc2o1 (single isomer, unassigned) [Compound 296]
10 | < 100 | < 100 | – | Cn1cc2cc(-c3ccc4nc(N5CC[C@@H](N[C@H]6C[C@@H](F)C6)C5)ccc4n3)c(O)cc2n1 (single isomer, unassigned) [Compound 300]
11 | < 100 | < 100 | – | Cn1cc2cc(-c3ccc4nc(N5CC[C@@H](NCC6CC6)C5)ccc4n3)c(O)c(F)c2n1 (single isomer, unassigned) [Compound 303]
12 | < 100 | < 100 | – | Cn1cc2cc(-c3ccc4nc(N5CC[C@H](NCC6CC6)C5)ccc4n3)c(O)c(F)c2n1 (single isomer, unassigned) [Compound 304]
13 | < 100 | < 100 | – | Cn1cc2cc(-c3ccc4nc(N5CC[C@@H](NC6CC6)C5)ccc4n3)c(O)c(F)c2n1 (single isomer, unassigned) [Compound 305]
14 | < 100 | < 100 | – | Cn1cc2cc(-c3ccc4nc(N5CC[C@H](NC6CC6)C5)ccc4n3)c(O)c(F)c2n1 (single isomer, unassigned) [Compound 306]
15 | < 100 | < 100 | – | Cc1nc2c(F)c(O)c(-c3ccc4nc(N5CC[C@@H](NC6CCC6)C5)ccc4n3)cc2o1 (single isomer, unassigned) [Compound 307]
16 | < 100 | < 100 | – | Cc1nc2c(F)c(O)c(-c3ccc4nc(N5CC[C@H](NC6CCC6)C5)ccc4n3)cc2o1 (single isomer, unassigned) [Compound 308]
17 | < 100 | < 100 | – | Cc1nc2c(C)c(O)c(-c3ccc4nc(N5CC[C@@H](NC6(C)CC6)C5)ccc4n3)cc2o1 (single isomer, unassigned) [Compound 310]
18 | 100 to 1000 | < 100 | – | Cc1nc2c(C)c(O)c(-c3ccc4nc(N5CC[C@H](NC6(C)CC6)C5)ccc4n3)cc2o1 (single isomer, unassigned) [Compound 311]
19 | < 100 | < 100 | – | Cc1nc2c(C)c(O)c(-c3ccc4nc(N5CC[C@@H](NC(C)C)C5)ccc4n3)cc2o1 (single isomer, unassigned) [Compound 313]
20 | < 100 | < 100 | – | Cc1nc2c(C)c(O)c(-c3ccc4nc(N5CC[C@H](NC(C)C)C5)ccc4n3)cc2o1 (single isomer, unassigned) [Compound 314]
21 | < 100 | < 100 | – | Cn1cc2cc(-c3ccc4nc(N5CC[C@@H](NC6CCC6)C5)ccc4n3)c(O)c(F)c2n1 (single isomer, unassigned) [Compound 316]
22 | < 100 | < 100 | – | Cn1cc2cc(-c3ccc4nc(N5CC[C@H](NC6CCC6)C5)ccc4n3)c(O)c(F)c2n1 (single isomer, unassigned) [Compound 317]

Row | IC50 [1] [nM] | IC50 ([2]; Homo sapiens) [nM] | IC50 [2] [nM] | Compound
23 | < 100 | < 100 | – | Cc1c(O)c(-c2ccc3nc(N4CC[C@@H](NC(C)C)C4)ccc3n2)cc2cn(C)nc12 (single isomer, unassigned) [Compound 319]
24 | < 100 | < 100 | – | Cc1c(O)c(-c2ccc3nc(N4CC[C@H](NCC5CC5)C4)ccc3n2)cc2cn(C)nc12 (single isomer, unassigned) [Compound 321]
25 | < 100 | < 100 | – | Cc1c(O)c(-c2ccc3nc(N4CC[C@@H](NCC5CC5)C4)ccc3n2)cc2cn(C)nc12 (single isomer, unassigned) [Compound 322]
26 | < 100 | < 100 | – | Cc1nc2c(F)c(O)c(-c3ccc4nc(N5CC[C@@H](NCC6CC6)C5)ccc4n3)cc2o1 (single isomer, unassigned) [Compound 323]
27 | < 100 | < 100 | – | Cc1nc2c(F)c(O)c(-c3ccc4nc(N5CC[C@H](NCC6CC6)C5)ccc4n3)cc2o1 (single isomer, unassigned) [Compound 324]
28 | < 100 | < 100 | – | Cc1nc2c(F)c(O)c(-c3ccc4nc(N5CC[C@@H](NC(C)C)C5)ccc4n3)cc2o1 (single isomer, unassigned) [Compound 329]
29 | < 100 | < 100 | – | Cc1nc2c(F)c(O)c(-c3ccc4nc(N5CC[C@H](NC(C)C)C5)ccc4n3)cc2o1 (single isomer, unassigned) [Compound 330]
30 | < 100 | < 100 | – | Cn1cc2cc(-c3ccc4nc(N5CC[C@H](N[C@H]6C[C@H](F)C6)C5)ccc4n3)c(O)c(F)c2n1 (single isomer, unassigned) [Compound 347]
31 | 100 to 1000 | < 100 | – | Cc1nc2cc(O)c(-c3ccc4nc(N5CC[C@@H](N[C@H]6C[C@H](F)C6)C5)ccc4n3)cc2o1 (single isomer, unassigned) [Compound 348]
32 | < 100 | < 100 | – | Cn1cc2cc(-c3ccc4nc(N5CC[C@@H](N[C@H]6C[C@H](F)C6)C5)ccc4n3)c(O)c(F)c2n1 (single isomer, unassigned) [Compound 349]
33 | < 100 | < 100 | – | Cc1nc2c(C)c(O)c(-c3ccc4nc(N5CC[C@H](N[C@H]6C[C@H](F)C6)C5)ccc4n3)cc2o1 (single isomer, unassigned) [Compound 351]
34 | < 100 | < 100 | – | Cc1nc2c(C)c(O)c(-c3ccc4nc(N5CC[C@@H](N[C@H]6C[C@H](F)C6)C5)ccc4n3)cc2o1 (single isomer, unassigned) [Compound 352]
35 | < 100 | < 100 | – | Cc1nc2c(F)c(O)c(-c3ccc4nc(N5CC[C@@H](NC6(C)CC6)C5)ccc4n3)cc2o1 (stereo in doubt) [Compound 326, 4-fluoro-2-methyl-6-{6-[(3 S)-3-[(1-methylcyclopropyl)amino]pyrrolidin-1-yl]-1,5-naphthyridin-2-yl}-1,3-benzoxazol-5-ol]
36 | < 100 | < 100 | – | Cc1nc2c(F)c(O)c(-c3ccc4nc(N5CCC(NC6(C)CC6)C5)ccc4n3)cc2o1 (stereo in doubt) [Compound 327, 4-fluoro-2-methyl-6-{6-[(3R)-3-[(1-methylcyclopropyl)amino]pyrrolidin-1-yl]-1,5-naphthyridin-2-yl}-1,3-benzoxazol-5-ol]
37 | < 100 | < 100 | – | Cc1nc2c(C)c(O)c(-c3ccc4nc(N5CC[C@H](NC(C)(C)C)C5)ccc4n3)cc2o1 [Compound 214]
38 | < 100 | < 100 | – | Cc1nc2c(C)c(O)c(-c3ccc4nc(N5CC[C@H](NC6CC6)C5)ccc4n3)cc2o1 [Compound 216]
39 | < 100 | < 100 | – | Cc1nc2c(C)c(O)c(-c3ccc4nc(N5CC[C@@H](NC6CC6)C5)ccc4n3)cc2o1 [Compound 217]
40 | < 100 | < 100 | – | Cn1cc2cc(-c3ccc4nc(N5CCC(NC6(C)CC6)C5)ccc4n3)c(O)cc2n1 (stereo not shown) [Compound 219]
41 | 100 to 1000 | < 100 | – | Cc1nc2cc(O)c(-c3ccc4nc(N5CC[C@@H](NC6CCC6)C5)ccc4n3)cc2o1 [Compound 229]
42 | 100 to 1000 | < 100 | – | Cc1nc2cc(O)c(-c3ccc4nc(N5CC[C@H](NC6CCC6)C5)ccc4n3)cc2o1 [Compound 230]
43 | < 100 | < 100 | – | Cc1nc2cc(O)c(-c3ccc4nc(N5CCC(NC(C)C)C5)ccc4n3)cc2o1 (stereo not shown) [Compound 231]
44 | 100 to 1000 | < 100 | – | Cc1nc2c(C)c(O)c(-c3ccc4nc(N5CCC(NC6CCC6)C5)ccc4n3)cc2o1 (stereo not shown) [Compound 235]
